From ChEMBL document CHEMBL1201862, “PubChem BioAssay data set” (2004)
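48-hour exposure; five concentrations; linearly interpolated endpoints. GI50 is the concentration that inhibits growth by half.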 Active and inactive are the calls of the source. No stated cut-off is given here; in the data, active = GI50 up to about 1.1 µM and inactive = higher.

What was measured:
Test in all cases: NCI anticancer screen, dose series, 48 h
786-0 = tested on: 786-0
A498 = tested on: A498
A549 = tested on: A549
ACHN = tested on: ACHN
BT-549 = tested on: BT-549
CAKI-1 = tested on: CAKI-1
CCRF-CEM = tested on: CCRF-CEM
COLO 205 = tested on: COLO 205
DU-145 = tested on: DU-145
EKVX = tested on: EKVX
HCC 2998 = tested on: HCC 2998
HCT-116 = tested on: HCT-116
HCT-15 = tested on: HCT-15
HL-60 = tested on: HL-60
HOP-62 = tested on: HOP-62
HOP-92 = tested on: HOP-92
HT-29 = tested on: HT-29
Hs-578T = tested on: Hs-578T
IGROV-1 = tested on: IGROV-1
K562 = tested on: K562
KM12 = tested on: KM12
LOX IMVI = tested on: LOX IMVI
M14 = tested on: M14
MCF7 = tested on: MCF7
MDA-MB-231 = tested on: MDA-MB-231
MDA-MB-435 = tested on: MDA-MB-435
MDA-N = tested on: MDA-N
MOLT-4 = tested on: MOLT-4
Malme-3M = tested on: Malme-3M
NCI-H226 = tested on: NCI-H226
NCI-H23 = tested on: NCI-H23
NCI-H460 = tested on: NCI-H460
NCI-H522 = tested on: NCI-H522
NCI/ADR-RES = tested on: NCI/ADR-RES
OVCAR-3 = tested on: OVCAR-3
OVCAR-4 = tested on: OVCAR-4
OVCAR-5 = tested on: OVCAR-5
OVCAR-8 = tested on: OVCAR-8
PC-3 = tested on: PC-3
RPMI-8226 = tested on: RPMI-8226
RXF 393 = tested on: RXF 393
SF-268 = tested on: SF-268
SF-295 = tested on: SF-295
SF-539 = tested on: SF-539
SK-MEL-28 = tested on: SK-MEL-28
SK-MEL-2 = tested on: SK-MEL-2
SK-MEL-5 = tested on: SK-MEL-5
SK-OV-3 = tested on: SK-OV-3
SN12C = tested on: SN12C
SNB-19 = tested on: SNB-19
SNB-75 = tested on: SNB-75
SR = tested on: SR
SW-620 = tested on: SW-620
T47D = tested on: T47D
TK-10 = tested on: TK-10
U-251 = tested on: U-251
UACC-257 = tested on: UACC-257
UACC-62 = tested on: UACC-62
UO-31 = tested on: UO-31

COc1ccc2c(c1)CCCC(Br)C2=O (stereo not drawn)
GI50 (786-0): 4.15 µM (inactive)
GI50 (A498): 19.6 µM (inactive)
GI50 (A549): 4.71 µM (inactive)
GI50 (ACHN): 6.32 µM (inactive)
GI50 (BT-549): 2.55 µM (inactive)
GI50 (CAKI-1): 2.96 µM (inactive)
GI50 (CCRF-CEM): 0.337 µM (active)
GI50 (COLO 205): 3.44 µM (inactive)
GI50 (DU-145): 15.1 µM (inactive)
GI50 (EKVX): 18.1 µM (inactive)
GI50 (HCC 2998): 7.66 µM (inactive)
GI50 (HCT-116): 0.407 µM (active)
GI50 (HCT-15): 0.929 µM
GI50 (HL-60): 3.59 µM (inactive)
GI50 (HOP-62): 5.55 µM (inactive)
GI50 (HOP-92): 7.57 µM (inactive)
GI50 (HT-29): 5.31 µM (inactive)
GI50 (Hs-578T): 17.1 µM (inactive)
GI50 (IGROV-1): 1.51 µM (inactive)
GI50 (K562): 0.447 µM (active)
GI50 (KM12): 3.24 µM (inactive)
GI50 (LOX IMVI): 0.379 µM (active)
GI50 (M14): 3.4 µM (inactive)
GI50 (MCF7): 3.43 µM (inactive)
GI50 (MDA-MB-231): 2.92 µM (inactive)
GI50 (MDA-MB-435): 2.02 µM (inactive)
GI50 (MDA-N): 2.88 µM (inactive)
GI50 (MOLT-4): 0.136 µM (active)
GI50 (Malme-3M): 4.48 µM (inactive)
GI50 (NCI-H226): 2.18 µM (inactive)
GI50 (NCI-H23): 4.9 µM (inactive)
GI50 (NCI-H460): 3.18 µM (inactive)
GI50 (NCI-H522): 0.265 µM (active)
GI50 (NCI/ADR-RES): 4.34 µM (inactive)
GI50 (OVCAR-3): 9.08 µM (inactive)
GI50 (OVCAR-4): 6.52 µM (inactive)
GI50 (OVCAR-5): 5.92 µM (inactive)
GI50 (OVCAR-8): 3.98 µM (inactive)
GI50 (PC-3): 3.9 µM (inactive)
GI50 (RPMI-8226): 2.34 µM (inactive)
GI50 (RXF 393): 4.78 µM (inactive)
GI50 (SF-268): 3.35 µM (inactive)
GI50 (SF-295): 3.99 µM (inactive)
GI50 (SF-539): 2.56 µM (inactive)
GI50 (SK-MEL-28): 6.92 µM (inactive)
GI50 (SK-MEL-2): 1.24 µM (inactive)
GI50 (SK-MEL-5): 2.55 µM (inactive)
GI50 (SK-OV-3): 3.97 µM (inactive)
GI50 (SN12C): 2.75 µM (inactive)
GI50 (SNB-19): 8.18 µM (inactive)
GI50 (SNB-75): 12.6 µM (inactive)
GI50 (SR): 0.294 µM (active)
GI50 (SW-620): 2.29 µM (inactive)
GI50 (T47D): 23.9 µM (inactive)
GI50 (TK-10): 4.21 µM (inactive)
GI50 (U-251): 4.72 µM (inactive)
GI50 (UACC-257): 11.5 µM (inactive)
GI50 (UACC-62): 2.8 µM (inactive)
GI50 (UO-31): 2.17 µM (inactive)

NC(=O)NC(=O)c1ccc(NC(=O)CBr)cc1
GI50 (786-0): 0.278 µM (active)
GI50 (A498): 14.3 µM (inactive)
GI50 (A549): 14.1 µM (inactive)
GI50 (ACHN): 1.44 µM (inactive)
GI50 (BT-549): 2.1 µM (inactive)
GI50 (CAKI-1): 0.679 µM (active)
GI50 (CCRF-CEM): 0.0769 µM (active)
GI50 (COLO 205): 1.48 µM (inactive)
GI50 (DU-145): 2.44 µM (inactive)
GI50 (EKVX): 2.38 µM (inactive)
GI50 (HCC 2998): 12.8 µM (inactive)
GI50 (HCT-116): 0.83 µM (active)
GI50 (HCT-15): 1.8 µM
GI50 (HL-60): 1.54 µM (inactive)
GI50 (HOP-62): 1.94 µM (inactive)
GI50 (HOP-92): 1.6 µM (inactive)
GI50 (HT-29): 1.73 µM (inactive)
GI50 (Hs-578T): 2.31 µM (inactive)
GI50 (IGROV-1): 2.03 µM (inactive)
GI50 (K562): 0.705 µM (active)
GI50 (KM12): 4 µM (inactive)
GI50 (LOX IMVI): 0.558 µM (active)
GI50 (M14): 11.8 µM (inactive)
GI50 (MCF7): 1.76 µM (inactive)
GI50 (MDA-MB-231): 2.49 µM (inactive)
GI50 (MDA-MB-435): 1.53 µM (inactive)
GI50 (MDA-N): 2.07 µM (inactive)
GI50 (MOLT-4): 0.241 µM (active)
GI50 (Malme-3M): 1.54 µM (inactive)
GI50 (NCI-H226): 3.33 µM (inactive)
GI50 (NCI-H23): 2.06 µM (inactive)
GI50 (NCI-H460): 4.66 µM (inactive)
GI50 (NCI-H522): 0.128 µM (active)
GI50 (NCI/ADR-RES): 2.56 µM (inactive)
GI50 (OVCAR-3): 0.843 µM (active)
GI50 (OVCAR-4): 1.66 µM (inactive)
GI50 (OVCAR-5): 2.75 µM (inactive)
GI50 (OVCAR-8): 2.26 µM (inactive)
GI50 (PC-3): 1.96 µM (inactive)
GI50 (RPMI-8226): 1.1 µM (active)
GI50 (RXF 393): 1.77 µM (inactive)
GI50 (SF-268): 1.4 µM (inactive)
GI50 (SF-295): 13.6 µM (inactive)
GI50 (SF-539): 2.18 µM (inactive)
GI50 (SK-MEL-28): 3.2 µM (inactive)
GI50 (SK-MEL-2): 1.99 µM (inactive)
GI50 (SK-MEL-5): 1.62 µM (inactive)
GI50 (SK-OV-3): 3.27 µM (inactive)
GI50 (SN12C): 0.561 µM (active)
GI50 (SNB-19): 21.9 µM (inactive)
GI50 (SNB-75): 1.81 µM (inactive)
GI50 (SR): 0.333 µM (active)
GI50 (SW-620): 0.344 µM (active)
GI50 (T47D): 1.67 µM (inactive)
GI50 (TK-10): 1.31 µM (inactive)
GI50 (U-251): 0.984 µM (active)
GI50 (UACC-257): 1.94 µM (inactive)
GI50 (UACC-62): 1.86 µM (inactive)
GI50 (UO-31): 1.42 µM (inactive)
